Assays:
Pseudomonas = assay: Mastitis-infected cow with chronic Pseudomonas infection treated by intramammary infusion; assay type: in vivo; conditions: 100 ug infusions twice a day in the infected gland; after 2 treatments; from thousands of bacteria per ml; detection limit 100 cfu/ml; FIG. 4
Protocol: After weeks of various conventional treatment the cow was treated with 25(OH)D3 as described in Example 1, with 100 ug infusions twice a day in the infected gland. The treatment of this animal with 25(OH)D3 caused the bacterial load to go from thousands of bacteria per ml to at or below our detection limit of 100 cfu/ml after 2 treatments (FIG. 4).

S. uberis = assay: Experimental S. uberis intramammary infection (mastitis) treated by intramammary infusion after each milking; assay type: in vivo, cows; conditions: for reduction in bacterial load: 100 μg in 10-ml FBS after each milking, vs FBS sham control
Protocol: Seven of the animals were treated after each milking with 100 μg of 25(OH)D3 in 10-ml fetal bovine serum (FBS), the other seven were sham treated with 10-ml FBS only. […] The lower bacterial load in the 25(OH)D3 treated animals and therefore a likely reduction of pyrogens explains the reduction in fever seen in the treated group. The level of bovine serum albumin (BSA) in the milk is used as an indicator of changes in the mammary vascular permeability in the gland and typically increases with an acute infection. […] Fewer bacteria in the treated group (FIG. 1) leads to less tissue damage (FIG. 3) and leads to less pyrogens going systemic (FIG. 2). Also, after the fourth day of the infection two cows (out of 6) in the 25D3 had no infection, whereas, all six were infected at this time point in the control treated group.

Cyp24A1 = Cyp24A1 gene expression in milk cells after intramammary infusion into an infected mammary quarter; assay type: in vivo; conditions: single 100 μg infusion into infected mammary quarter of two cows; compared to cells obtained prior to infusion

C=C1CC[C@H](O)C/C1=C/C=C1\CCC[C@]2(C)[C@@H]([C@H](C)CCCC(C)(C)O)CC[C@@H]12 [25(OH)D3, 25-hydroxy vitamin D3]
bacterial load (Pseudomonas): ≤ 100 cfu/ml | reduction in bacterial load (S. uberis; day 2 of the experiment): 2-4 log | reduction in bacterial load (S. uberis; days 4 and 5 post infection): 1.5-2 log | cows with no infection (S. uberis; after the fourth day of the infection, all six control cows were infected): two | level of bovine serum albumin (BSA) in the milk (S. uberis; indicator of mammary vascular permeability, treated vs control, FIG. 3): not statistically significant | bacterial counts in infected glands (S. uberis; repeated measures analysis, significant difference (p<0.05) at day 2 AM and day 2 PM, FIG. 1): significantly (p<0.05) reduced | rectal temperatures (S. uberis; treated vs control cows at two time points (p<0.05), FIG. 2): significantly lower | gene expression of Cyp24A1 (Cyp24A1): increased
